Reference: US4465676A, “16α Halogen substituted 3,17β-dihydroxy steroidal estrogens” (priority 1980, dated 1984)

Legend:
[1] = system: antisera against bovine serum albumin complexes with E2-17-hemisuccinate, E2-6-carboxymethyloxime and E2-3-carboxymethyl ether; assay: Radioimmunoassay with antisteroid antisera; type: binding, rabbits; conditions: three antisera, various dilutions
Method: Antisteroid antisera were produced in rabbits immunized with steroid-bovineserum albumin conjugates.
Varying amounts of E2 dissolved in methanol were added to test tubes and evaporated to dryness. The residues were dissolved in 100 μl of antiserum that had been diluted in 0.1M phosphate, pH 7.0/0.015M sodium azide/0.15M NaCl/0.1% gelatin (PBS buffer). […] Upon completion of the incubation, 100 μl of 0.5% gelatin in PBS buffer was added, followed by 1 ml of PBS buffer containing 2.5 mg of dextran-coated charcoal. The mixture was agitated in a vortex mixer and, after 10 minutes at 4° C., it was centrifuged at 5000×g for 10 minutes at 4° C. Aliquots (0.9 ml) were assayed for radioactivity.
The data also indicate that very sensitive radioimmunoassays could be developed with all three antisera.

[2] = molecular target: T1, estrogen receptor (calf uterine cytosol) (Bos taurus, UniProt P49884); assay: Competition for the estrogen receptor in calf uterine cytosol; type: binding; conditions: 125I-E2 0.22 nM, 3H-E2 0.74 nM
T1 construct: Fresh calf uteri obtained from a slaughterhouse; from tissue; host or cells: calf uterus, 150,000 x g cytosol from lyophilized powder
T1 sequence (P49884 1-596): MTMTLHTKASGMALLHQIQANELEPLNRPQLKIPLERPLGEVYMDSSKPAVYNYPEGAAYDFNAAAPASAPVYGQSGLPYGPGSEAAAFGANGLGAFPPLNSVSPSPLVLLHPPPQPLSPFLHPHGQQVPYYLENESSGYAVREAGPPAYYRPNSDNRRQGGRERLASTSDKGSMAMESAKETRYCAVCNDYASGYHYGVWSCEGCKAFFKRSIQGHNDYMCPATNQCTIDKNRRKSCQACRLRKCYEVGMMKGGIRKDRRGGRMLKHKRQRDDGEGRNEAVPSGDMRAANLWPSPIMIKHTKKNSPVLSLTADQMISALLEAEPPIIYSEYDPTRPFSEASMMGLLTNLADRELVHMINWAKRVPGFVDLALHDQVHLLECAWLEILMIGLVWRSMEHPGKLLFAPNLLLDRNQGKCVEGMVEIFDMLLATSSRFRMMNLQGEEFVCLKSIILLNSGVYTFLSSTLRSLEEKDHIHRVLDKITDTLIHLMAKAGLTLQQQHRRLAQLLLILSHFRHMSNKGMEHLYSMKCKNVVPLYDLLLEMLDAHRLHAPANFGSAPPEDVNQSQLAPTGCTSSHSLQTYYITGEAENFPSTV
Method: Several compounds, at the two indicated concentrations, were allowed to compete with both labeled steroids for sites in calf uterine cytosol. Incubations were overnight at 4° C., and bound and free steroids were separated with dextran-coated charcoal.

`C[C@]12CC[C@@H]3c4ccc(O)cc4CC[C@H]3[C@@H]1C[C@@H]([125I])[C@@H]2O` [^125 I-E2, 16α-[^125 I]iodoestra-1,3,5(10)-triene-3,17β-diol] was tested, and the “binding of tracer to antisera” value [1] was “bound to all three antisera” and the “% B0 (initial specific binding of tracer alone)” value [2] was 40%.
